Test results from US10406122B2 (priority 2011, dated 2019).
Several values for one entry are separate records, joined by “and”; a condition that tells them apart may be missing. Identical values can stand only once. Counter-ions that a name gives are not always drawn. Like-named read-outs stand apart in the source and are kept apart here.

What was measured:
[1] = tramadol […] [100 mg] p.o., single dose; cited from earlier work
[2] = test system: experienced opioid abusers; conditions: cited from earlier work
[3] = oral administration; cited from earlier work
[4] = test system: rats and dogs; conditions: repeat-dose; cited from earlier work
[5] = test system: postoperative patients; conditions: cited from earlier work
[6] = in vivo; conditions: beagle, dog; for AUC(0-t) / Cmax: 26 mg/kg/day
[7] = test system: Beagle dogs; conditions: in vivo
[8] = test system: patients undergoing TKA or THA; assay: Example 2: open label study of Tramadol IV in Total knee Arthroplasty or Total Hip Arthroplasty; conditions: for PAIN Intensity Difference, Mean score (SD): 100 mg IV; for Time to first demand of rescue medication after the first dose of Tramadol, Mean: hydrochloride
[9] = clinical; conditions: human, in vivo
Excerpt: The secondary objectives of the study are to assess the safety and tolerability of the study medication.
The study was an open-label, single-period, randomized, parallel treatment design. The subjects underwent screening within 4 weeks of dosing. A total of 32 subjects were selected for participation. All subjects entered the clinical research unit on Day −1 prior to dosing. A blood sample for pharmacogenomic analysis was obtained at Day 1. This sample was to be used to determine the CYP2D6 phenotype if significant variability among subjects is observed in the pharmacokinetic values. Subjects received study drug every 6 hours beginning on the morning of Day 1 and ending on the morning of Day 3. The first dose on Day 1 and the last dose on Day 3 were administered after a minimum 10 hour fast.
No food was administered until 4 hours after dosing on Day 3. Standardized meals were provided. Subjects remained confined to the clinical research unit until after completion of the 24 hour post-dose blood sampling and safety assessments (Day 4). […] Study drug tolerability was evaluated by Investigator assessment and evaluation of adverse event frequency and severity, including irritation at the injection site. Subjects who were taking SSRIs, tricyclic antidepressants, antipsychotic agents and MAO inhibitors were excluded from the study.
The treatments are defined in Table 3 below. Each subject received only one of the designated treatments.
The subjects were randomized to receive one of the 4 treatment regimens as outlined above. Subjects were administered Treatments A or C by intravenous administration or Ultram® (Treatment B or D) orally beginning in the morning of Day 1 at approximately 6:00 AM to 8:00 AM. All subjects fasted for at least 10 hours prior to the first dose of study drug. […] Water was allowed ad libitum; however, water was restricted from 1 hour prior to dosing to 1 hour after dosing on Day 3. Following the last dose in the morning of Day 3, no food was allowed until after the 4 hour blood sample had been obtained.
FIG. 1 is a graphical representation of the plasma concentration curve for Treatments A-D after the administration of dose #9.

COc1cccc([C@]2(O)CCCC[C@H]2CN(C)C)c1 (racemic) [Tramadol, (±)cis-2-[(dimethylamino)methyl]-1-(3-methoxyphenyl) cyclohexanol hydrochloride]
AUC [1]: 2177 ± 722 ng·h/mL | Cmax [1]: 274 ± 75 ng/mL | Tmax [1]: 1.6 ± 0.5 h | t1/2 [1]: 5.9 ± 0.7 h | seizure ([2]; 200 mg IV administered over 5 minutes): No seizures were observed | seizure ([2]; 300 mg IV delivered over 2.5 minutes): seizure was observed | seizure ([2]; 700 mg IV administered over 1 minute): seizure was observed | ratings of feel drug effect compared to placebo ([2]; IV over 5 minutes): significantly increased ratings | ratings of liking / ARCI-MBG scale ([2]; tramadol 100 and 200 mg IV, morphine 10 and 20 mg IV, over 5 minutes): neither dose of tramadol increased ratings | fertility and teratogenic effects [3]: no safety concerns with respect to fertility or teratogenic effects | doses with behavioral/clinical signs and convulsions [4]: ≥ 25 mg/kg/day | serious adverse effects ([5]; loading doses up to 150 mg IV (Silvasti 2000)): not associated with any serious adverse effects | serious adverse effects ([5]; mean cumulative doses 449 to 868.3 mg over 24, 36 and 48 h): no serious adverse effects were observed | NOAEL ([6]; both, 6.5 mg/kg): 26 mg/kg/day | AUC(0-t) ([6]; female): 1520 ng·h/mL | Cmax ([6]; female): 1530 ng/mL | AUC(0-t) ([6]; male): 1210 ng·h/mL | Cmax ([6]; male): 1280 ng/mL | adverse observations ([7]; dog): convulsions for two Beagle dogs | toxicity in humans, conclusion from dog data [7]: not toxic | major adverse events ([8]; 100 mg IV every 6 hours, 48 hours): nausea and vomiting, followed by pruritus | tolerability ([8]; 100 mg QID, patients with both high and low BMI): well tolerated | Morphine usage, Mean ([8]; 1st dose Tramadol at wound closure, First 24 hours): 10.57 mg | Morphine usage, Mean ([8]; 1st dose Tramadol at wound closure, In 48 hours): 12.98 mg | Morphine usage, Mean ([8]; 1st dose Tramadol at wound closure, Loading dose): 4.05 mg | Morphine usage, Mean ([8]; 1st dose Tramadol at wound closure, Second 24 hours): 3.79 mg | Morphine usage, Mean ([8]; 1st dose Tramadol on demand, First 24 hours): 11.03 mg | Morphine usage, Mean ([8]; 1st dose Tramadol on demand, In 48 hours): 12.92 mg | Morphine usage, Mean ([8]; 1st dose Tramadol on demand, Loading dose): 3.69 mg | Morphine usage, Mean ([8]; 1st dose Tramadol on demand, Second 24 hours): 4 mg | PAIN Intensity Difference, Mean score (SD) ([8]; 1st dose at wound closure, 0.5 hours post first dose): 0 (0.09) | PAIN Intensity Difference, Mean score (SD) ([8]; 1st dose at wound closure, 1 hour post first dose): −0.3 (1.6) | PAIN Intensity Difference, Mean score (SD) ([8]; 1st dose at wound closure, 2 hours post first dose): −1.2 (1.8) | PAIN Intensity Difference, Mean score (SD) ([8]; 1st dose at wound closure, 3 hours post first dose): −2.2 (1.9) | PAIN Intensity Difference, Mean score (SD) ([8]; 1st dose at wound closure, 4 hours post first dose): −2.6 (2.0) | PAIN Intensity Difference, Mean score (SD) ([8]; 1st dose at wound closure, 6 hours post first dose): −3.2 (2.1) | PAIN Intensity Difference, Mean score (SD) ([8]; 1st dose at wound closure, 9 hours post first dose): −2.7 (2.2) | PAIN Intensity Difference, Mean score (SD) ([8]; 1st dose at wound closure, 12 hours post first dose): −2.2 (2.0) | PAIN Intensity Difference, Mean score (SD) ([8]; 1st dose at wound closure, 18 hours post first dose): −2.2 (2.1) | PAIN Intensity Difference, Mean score (SD) ([8]; 1st dose at wound closure, 24 hours post first dose): −1.9 (1.5) | PAIN Intensity Difference, Mean score (SD) ([8]; 1st dose at wound closure, 30 hours post first dose): −1.6 (1.4) | PAIN Intensity Difference, Mean score (SD) ([8]; 1st dose at wound closure, 36 hours post first dose): −1.3 (1.4) | PAIN Intensity Difference, Mean score (SD) ([8]; 1st dose at wound closure, 42 hours post first dose): −1.7 (1.8) | PAIN Intensity Difference, Mean score (SD) ([8]; 1st dose at wound closure, 48 hours post first dose): −1.4 (1.5) | PAIN Intensity Difference, Mean score (SD) ([8]; 1st dose on demand, 0.5 hours post first dose): −0.1 (2.4) | PAIN Intensity Difference, Mean score (SD) ([8]; 1st dose on demand, 1 hour post first dose): −0.5 (2.8) | PAIN Intensity Difference, Mean score (SD) ([8]; 1st dose on demand, 2 hours post first dose): 0.2 (2.1) | PAIN Intensity Difference, Mean score (SD) ([8]; 1st dose on demand, 3 hours post first dose): 0.3 (2.3) | PAIN Intensity Difference, Mean score (SD) ([8]; 1st dose on demand, 4 hours post first dose): 0.3 (2.6) | PAIN Intensity Difference, Mean score (SD) ([8]; 1st dose on demand, 6 hours post first dose): 0.1 (2.8) | PAIN Intensity Difference, Mean score (SD) ([8]; 1st dose on demand, 9 hours post first dose): 0.8 (2.9) | PAIN Intensity Difference, Mean score (SD) ([8]; 1st dose on demand, 12 hours post first dose): 1.4 (2.0) | PAIN Intensity Difference, Mean score (SD) ([8]; 1st dose on demand, 18 hours post first dose): 1.2 (2.2) | PAIN Intensity Difference, Mean score (SD) ([8]; 1st dose on demand, 24 hours post first dose): 1.6 (1.8) | PAIN Intensity Difference, Mean score (SD) ([8]; 1st dose on demand, 30 hours post first dose): 1.9 (2.4) | PAIN Intensity Difference, Mean score (SD) ([8]; 1st dose on demand, 36 hours post first dose): 1.9 (2.1) | PAIN Intensity Difference, Mean score (SD) ([8]; 1st dose on demand, 42 hours post first dose): 2.1 (2.1) | PAIN Intensity Difference, Mean score (SD) ([8]; 1st dose on demand, 48 hours post first dose): 2.4 (2.3) | Time to first demand of rescue medication after the first dose of Tramadol, Mean ([8]; Tramadol at wound Closure group): 2.5 (+/−3) hours and 2.52 hours | Time to first demand of rescue medication after the first dose of Tramadol, Mean ([8]; Tramadol on demand group): 2.11 h | Time to first demand of rescue medication after the first dose of Tramadol, Mean ([8]; Tramadol on demand group, listed as tramadol): 2.1 (+/−5.4) hours | total amount of morphine used ([8]; both groups): approximately 15 mg | rescue morphine used ([8]; first 24 hours, both groups): about 11 mg | rescue morphine used ([8]; the next day, both groups): 4 mg | Bioavailability, AUC6 ([9]; 50 mg): 85.2% | Bioavailability, AUCt ([9]; 50 mg): 102.0% | Bioavailability, AUC∞ ([9]; 50 mg): 103.1% | Bioavailability, Cmax ([9]; 50 mg): 64.3% | Bioavailability, T1/2 ([9]; 50 mg): 109.6% | bioavailability ([9]; 50 mg): 91.2% | Bioavailability, AUC6 ([9]; 100 mg): 70.3% | Bioavailability, AUCt ([9]; 100 mg): 74.8% | Bioavailability, AUC∞ ([9]; 100 mg): 74.6% | Bioavailability, Cmax ([9]; 100 mg): 54.9% | Bioavailability, T1/2 ([9]; 100 mg): 88.0% | bioavailability ([9]; 100 mg): 114% | dose proportionality ([9]; iv): substantially dose proportional | AUC ([9]; iv, 50 mg): 1960 ± 450 ng·h/mL | AUC(0-inf) ([9]; iv, 50 mg): 4040 ± 1060 ng·h/mL | AUC(0-t) ([9]; iv, 50 mg): 4010 ± 1040 ng·h/mL | half-life ([9]; iv, 50 mg): 6.61 ± 0.4 h | Cmax ([9]; iv, 50 mg): ~541 ng/mL | Tmax ([9]; iv, 50 mg): ~0.375 h | AUC ([9]; iv, 100 mg): 4730 ± 1240 ng·h/mL | AUC(0-inf) ([9]; iv, 100 mg): 11400 ± 4540 ng·h/mL | AUC(0-t) ([9]; iv, 100 mg): 11200 ± 4270 ng·h/mL | half-life ([9]; iv, 100 mg): 7.89 ± 1.54 h | Cmax ([9]; iv, 100 mg): ~1250 ng/mL | Tmax ([9]; iv, 100 mg): ~0.406 h | Dose Proportionality Ratio, T1/2 ([9]; po): 0.945 | AUC ([9]; po, 50 mg): 1730 ± 625 ng·h/mL | AUC(0-inf) ([9]; po, 50 mg): 4450 ± 2110 ng·h/mL | AUC(0-t) ([9]; po, 50 mg): 4360 ± 2030 ng·h/mL | half-life ([9]; po, 50 mg): 7.39 ± 1.72 h | Cmax ([9]; po, 50 mg): 355 ± 121 ng/mL | Tmax ([9]; po, 50 mg): 1.88 ± 0.78 h | AUC ([9]; po, 100 mg): 3360 ± 1010 ng·h/mL | AUC(0-inf) ([9]; po, 100 mg): 8850 ± 4570 ng·h/mL | AUC(0-t) ([9]; po, 100 mg): 8660 ± 4260 ng·h/mL | half-life ([9]; po, 100 mg): 7.05 ± 1.97 h | Cmax ([9]; po, 100 mg): 703 ± 210 ng/mL | Tmax ([9]; po, 100 mg): 2.32 ± 1.35 h
